According to patent US20170042849A1, “COMPOSITION FOR BRAIN IMPROVEMENT” (N.V. Nutricia, priority 2014, published 2017):

Columns and labels:
C3H/HeOuJ mice [1] = experiment: Social interaction test in cow's milk allergy model mice and unsensitized mice; type: in vivo
Protocol: (§1) Pathogen-free, male C3H/HeOuJ mice (4 weeks old, Charles River Laboratories) mice were bred and raised on a cow's milk protein-free diet (Special Diet Services, Witham, UK) and housed on a 12 h light-dark cycle with access to food and water ad libitum. All animal procedures were conducted in accordance with the guidelines of the Dutch Committee of Animal Experiments. The mice were sensitized orally with 0.5 mL homogenized whey protein (40 mg/mL PBS) and cholera toxin (CT, 20 μg/mL PBS, Quadratech Diagnostics) as an adjuvant; sham-sensitized mice received CT alone. Mice were orally boosted once a week for 5 consecutive weeks. One week after the last sensitization, mice were challenged orally with 0.5 mL whey (100 mg/mL PBS). The mice were fed a control diet, or a diet supplemented with glutamine (5 wt %). At the end, the mice were subjected to social interaction and spatial memory tests. Cow's milk allergy is associated with disturbed social interaction and impaired spatial memory, and thus suited to study the effects of dietary intervention there. […] By using video tracking software (EthoVision 3.1.16, Noldus), an interaction zone around the cage was digitally determined. Time spent in the interaction zone as well as frequency of entering the interaction zone over the selected time period was measured. […]

C3H/HeOuJ mice [2] = experiment: T maze spontaneous alternation spatial memory performance test; type: in vivo; conditions: CMA sensitized mice
Protocol: as §1, with “The percentage of alternation (number of turns” for “By using video tracking software (EthoVision 3.1.16, Noldus), an interaction zone around the cage was digitally determined. Time spent”, “each goal arm) and total trial duration are recorded. This test is used to quantify cognitive deficits in transgenic strains” for “the interaction zone as well as frequency”, “mice and evaluate novel chemical entities for their effects on cognition.” for “entering the interaction zone over the selected time period was measured.”

## NC(=O)CC[C@H](N)C(=O)O [glutamine, L-glutamine]
C3H/HeOuJ mice [1]; CMA sensitized mice, diet supplemented with glutamine (5 wt %), mean +/- s.e.
  Time spent in interaction zone: 117 +/− 20.8 (n = 12) sec
C3H/HeOuJ mice [1]; unsensitized mice fed the Gln diet
  Time spent in the interaction zone: 174 ± 19.1 s
C3H/HeOuJ mice [2]; diet supplemented with glutamine (5 wt %), mean, s.e.
  % Alternation in spatial memory test: 66.7 +/− 6.4 (n = 12) %
C3H/HeOuJ mice [2]; diet with supplementation of Gln
  Reduced alternation in the T-maze test vs control CMA-mice, in words: markedly improved
